Reference: publication PMC4092373, “Cell-secreted Flavins Bound to Membrane Cytochromes Dictate Electron Transfer Reactions to Surfaces with Diverse Charge and pH” (Scientific Reports, 2014)

Assays:
MtrC = biological target: T1, MtrC (Shewanella oneidensis, UniProt Q8EG34); assay: whole-cell differential pulse voltammetry; assay type: cell-based; settings: rough estimate in living wild-type MR-1 monolayer biofilm; printed for FMN and OM c-Cyts collectively, assigned to MtrC by gene deletions; saturation assumed at 52 μM FMN; semiquinone form bound under
T1 construct: native outer-membrane decaheme cytochrome in intact living cells (monolayer biofilm on ITO electrode), not purified
T1 sequence (Q8EG34 entry or part of it): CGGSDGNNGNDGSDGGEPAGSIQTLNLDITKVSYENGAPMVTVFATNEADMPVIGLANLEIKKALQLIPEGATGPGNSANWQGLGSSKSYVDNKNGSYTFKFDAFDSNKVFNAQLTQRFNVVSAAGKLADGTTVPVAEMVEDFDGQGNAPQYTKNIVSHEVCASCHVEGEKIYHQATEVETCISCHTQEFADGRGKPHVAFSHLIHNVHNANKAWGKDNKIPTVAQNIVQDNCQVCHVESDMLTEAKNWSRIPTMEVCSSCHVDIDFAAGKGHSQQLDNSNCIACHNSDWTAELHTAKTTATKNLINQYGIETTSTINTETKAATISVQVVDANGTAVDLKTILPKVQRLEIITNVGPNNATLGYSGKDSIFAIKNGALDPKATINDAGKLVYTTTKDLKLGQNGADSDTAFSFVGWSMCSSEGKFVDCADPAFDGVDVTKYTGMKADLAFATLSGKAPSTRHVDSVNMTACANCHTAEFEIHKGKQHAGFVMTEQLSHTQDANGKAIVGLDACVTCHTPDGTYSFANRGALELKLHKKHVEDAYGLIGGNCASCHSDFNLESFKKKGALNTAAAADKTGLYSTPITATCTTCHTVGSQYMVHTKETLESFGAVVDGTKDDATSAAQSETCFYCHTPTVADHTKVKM

OmcA = biological target: T2, OmcA (Shewanella oneidensis, UniProt Q8EG33); assay: whole-cell differential pulse voltammetry; assay type: cell-based; settings: redox peak potential of bound riboflavin, no affinity constant; delta-mtrC cells, 2.0 μM RF, 10 mM lactate, 30 °C; shift lost in delta-omcA cells
T2 construct: native outer-membrane decaheme cytochrome in intact living cells (wild type and delta-mtrC strain on ITO electrode), not purified
T2 sequence (Q8EG33 entry or part of it): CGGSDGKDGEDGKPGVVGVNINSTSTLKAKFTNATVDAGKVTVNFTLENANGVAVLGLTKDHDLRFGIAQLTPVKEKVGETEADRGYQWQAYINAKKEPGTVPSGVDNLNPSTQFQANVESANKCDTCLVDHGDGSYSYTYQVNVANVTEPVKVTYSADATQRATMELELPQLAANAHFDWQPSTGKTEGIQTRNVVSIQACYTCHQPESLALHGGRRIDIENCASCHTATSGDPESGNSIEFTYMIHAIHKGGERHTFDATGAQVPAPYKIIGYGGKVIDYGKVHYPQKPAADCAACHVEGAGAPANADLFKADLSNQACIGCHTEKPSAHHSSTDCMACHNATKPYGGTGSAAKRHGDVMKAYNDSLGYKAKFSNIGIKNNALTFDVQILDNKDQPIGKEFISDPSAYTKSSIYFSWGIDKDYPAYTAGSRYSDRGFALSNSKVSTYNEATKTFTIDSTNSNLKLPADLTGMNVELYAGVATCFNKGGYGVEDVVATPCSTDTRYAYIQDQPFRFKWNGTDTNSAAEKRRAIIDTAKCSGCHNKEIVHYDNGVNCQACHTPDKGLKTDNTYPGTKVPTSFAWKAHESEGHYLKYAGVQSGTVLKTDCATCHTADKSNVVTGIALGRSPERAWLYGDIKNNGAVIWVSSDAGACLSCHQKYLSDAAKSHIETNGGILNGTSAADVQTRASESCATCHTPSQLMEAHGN

Row | Structure (SMILES) | Kd (MtrC) [µM] | Ep (OmcA) [mV]
1 | Cc1cc2nc3c(=O)[nH]c(=O)nc-3n(C[C@H](O)[C@H](O)[C@H](O)COP(=O)(O)O)c2cc1C [FMN, flavin mononucleotide] | ~10 | –
2 | Cc1cc2nc3c(=O)[nH]c(=O)nc-3n(C[C@H](O)[C@H](O)[C@H](O)CO)c2cc1C [RF, riboflavin] | – | −102
